Literature values in patent US20060034774A1, “Galactopyrannosyltriaminetetracarboxylate as ligands for bioactivated paramagnetic metal complexes” (Kaohsiung Medical University, priority 2004, published 2006).
Read-outs that look alike come from different tables or passages of the source.

Biological target: β-galactosidase (β-gal) (Escherichia coli, UniProt P00722)
Sequence (P00722 2-1024): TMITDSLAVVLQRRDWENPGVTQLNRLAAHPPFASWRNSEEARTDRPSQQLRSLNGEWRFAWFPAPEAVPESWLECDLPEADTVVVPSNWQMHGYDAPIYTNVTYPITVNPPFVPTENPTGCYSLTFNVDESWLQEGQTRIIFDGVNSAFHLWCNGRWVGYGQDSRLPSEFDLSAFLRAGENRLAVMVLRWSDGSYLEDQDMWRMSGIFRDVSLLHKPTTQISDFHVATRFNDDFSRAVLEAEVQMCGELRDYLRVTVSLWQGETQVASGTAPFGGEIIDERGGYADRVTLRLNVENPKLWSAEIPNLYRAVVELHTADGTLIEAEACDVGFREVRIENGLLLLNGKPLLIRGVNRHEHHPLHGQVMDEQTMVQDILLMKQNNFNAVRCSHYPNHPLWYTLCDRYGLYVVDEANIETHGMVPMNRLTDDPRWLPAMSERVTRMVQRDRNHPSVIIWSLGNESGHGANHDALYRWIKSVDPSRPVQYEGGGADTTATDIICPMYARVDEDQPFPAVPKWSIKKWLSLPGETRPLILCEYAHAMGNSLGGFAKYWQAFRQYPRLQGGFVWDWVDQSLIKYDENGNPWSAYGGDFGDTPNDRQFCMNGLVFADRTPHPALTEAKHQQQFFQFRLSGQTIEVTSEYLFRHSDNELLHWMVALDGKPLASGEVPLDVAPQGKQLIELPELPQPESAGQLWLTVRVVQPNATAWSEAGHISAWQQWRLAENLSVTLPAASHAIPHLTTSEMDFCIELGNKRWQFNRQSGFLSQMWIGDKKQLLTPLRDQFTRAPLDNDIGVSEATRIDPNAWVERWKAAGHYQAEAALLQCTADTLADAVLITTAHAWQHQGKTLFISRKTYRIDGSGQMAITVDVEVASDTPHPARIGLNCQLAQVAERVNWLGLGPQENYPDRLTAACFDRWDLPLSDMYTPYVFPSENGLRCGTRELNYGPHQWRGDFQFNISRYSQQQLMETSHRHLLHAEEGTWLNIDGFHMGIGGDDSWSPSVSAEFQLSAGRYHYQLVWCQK

O=C(O)CN1CCN(CCO[C@@H]2O[C@H](CO)[C@H](O)[C@H](O)[C@H]2O)CCN(CC(=O)O)CCN(CC(=O)O)CC1 [Egad, 4,7,10-tri(aceticacid)-1-(2-β-galactopyranosylethoxy)-1,4,7,10-tetraagacyclo dodecane]
number of inner space water molecules (after hydrolysis by β-galactosidase (β-gal)): 1.2
number of inner space water molecules (before β-galactosidase): 0.7
